Test results published in patent US11242347B2, “2-phenyl-3,4-dihydropyrrolo[2,1-Ff] [1,2,4]triazinone derivatives as phosphodiesterase inhibitors and uses thereof” (TOPADUR PHARMA AG, priority 2015, dated 2022).
Like-named read-outs stand apart in the source and are kept apart here. Each block holds one compound with its values, some of them ahead of it.

Columns and labels:
[1] = target: human phosphodiesterase-5 (PDE5 enzyme isolated from human platelets) (Homo sapiens (Human), UniProt O76074); assay: PDE5 assay: formation of 5′GMP from cGMP (SPA)
Protocol: Evaluation of the effects of compounds of the present invention on the activity of the human phosphodiesterase-5 quantified by measuring the formation of 5′GMP from cGMP using PDE5 enzyme isolated from human platelets.
Thereafter, the reaction is initiated by addition of the enzyme and the mixture is incubated for 60 min at 22° C.
For basal control measurements, the enzyme is omitted from the reaction mixture. Following incubation SPA beads are added. After 20 min at 22° C. under shaking, the amount of [3H]5′GMP is quantified with a scintillation counter (Topcount, Packard).
The standard inhibitory reference compound is dipyridamole, which is tested in each experiment at several concentrations to obtain an inhibition curve from which its IC50 value is calculated.

[2] = system: phenylephrine-precontracted rat aortic rings; assay: Isometric tension studies: relaxation of phenylephrine-precontracted rat aortic rings; conditions: for IC40: concentration where 40% relaxation was achieved; for EC50 / Emax: Rattus norvegicus
Protocol: After 1 week of acclimatization, rats were anesthetized. Appropriate depth of anesthesia was determined by the absence of the leg flexor response and the eyelid reflex. Then, the thorax was quickly opened by a midline incision, and the rat was sacrificed by cutting the heart and exsanguination.
Indomethacin (1 μM) was added to the saline solution.
Eligible rings were then washed several times to restore tension to the baseline level.
In some experiments, the entire length of the thoracic aorta was functionally denuded of the endothelial layer by gently scraping the luminal surface with a 1.5 mm glass rod. […] Rings were then washed several times to restore tension to the baseline level.
Indomethacin (1 μM) was added to the saline solution. […] Only vessels with at least 60% relaxation to 1 μM ACh from the tension with 300 nM were eligible.
The preparations were allowed to equilibrate for 60 min in Krebs with high glucose (25 mM) before contraction to a new single concentration of PE (300 nM).
Finally, sodium nitroprusside (0.1 mM) was added, in order to obtain maximum relaxation of arterial rings.
The amount of relaxation (percent values as means±SEM) was quantified as percent relaxation from the tension (plateau) achieved with phenylephrine.
Data are presented as mean±SEM. Statistical analysis of results has been performed by analysis of variance (ANOVA) either parametric or non-parametric (Kruskal-Wallis), followed by Bonferroni test or Dunn tests as appropriate (GraphPad Software Inc, San Diego, Calif., USA). Significance was accepted when P<0.05. Non-linear regression was conducted with GraphPad Software).

[3] = 5.0E−09M, percent inhibition of the control enzyme activity

- % inhibition at 5.0E−09M [1, 3]: 77.6%
SMILES: CCCc1c(/C=N/O)c(C)c2c(=O)[nH]c(-c3cc(S(=O)(=O)N4CCN(C)CC4)ccc3OCC)nn12 [Compound 1a, (E)-2-(2-ethoxy-5-((4-methylpiperazin-1-yl)sulfonyl)phenyl)-5-methyl-4-oxo-7-propyl-3,4-dihydropyrrolo[2,1-f][1,2,4]triazine-6-carbaldehyde oxime]

- % inhibition at 5.0E−09M [1, 3]: 74.5%
SMILES: CCCc1c(/C=N/O)c(C)c2c(=O)[nH]c(-c3cc(S(=O)(=O)N4CCN(CCO[N+](=O)[O-])CC4)ccc3OCC)nn12 [Compound 1af, (E)-2-(4-((4-ethoxy-3-(6-((hydroxyimino)methyl)-5-methyl-4-oxo-7-propyl-3,4-dihydropyrrolo[2,1-f][1,2,4]triazin-2-yl)phenyl)sulfonyl)piperazin-1-yl)ethyl nitrate]

- % inhibition at 5.0E−09M [1, 3]: 84.9%
SMILES: CCCc1c(/C=N/O)c(C)c2c(=O)[nH]c(-c3cc(S(=O)(=O)N4CCC(CCO)CC4)ccc3OCC)nn12 [Compound 1al, (E)-2-(2-ethoxy-5-(4-(2-hydroxyethyl)piperidin-1-ylsulfonyl)phenyl)-5-methyl-4-oxo-7-propyl-3,4-dihydropyrrolo[1,2-f][1,2,4]triazine-6-carbaldehyde oxime]

SMILES: CCCc1c(/C=N/O)c(C)c2c(=O)[nH]c(-c3cc(S(=O)(=O)N4CCC(CCO[N+](=O)[O-])CC4)ccc3OCC)nn12 [Compound 1am, (E)-2-(1-(4-ethoxy-3-(6-((hydroxyimino)methyl)-5-methyl-4-oxo-7-propyl-3,4-dihydropyrrolo[1,2-f][1,2,4]triazin-2-yl)phenylsulfonyl)piperidin-4-yl)ethyl nitrate]
- % inhibition at 5.0E−09M [1]: 25.1%
- IC50 [1]: 66 nM

- % inhibition at 5.0E−09M [1, 3]: 84.9%
SMILES: CCCc1c(/C=N/O)c(C)c2c(=O)[nH]c(-c3cc(S(=O)(=O)N4CCN(CCCO)CC4)ccc3OCC)nn12 [Compound 1an, (E)-2-(2-ethoxy-5-(4-(3-hydroxypropyl)piperazin-1-ylsulfonyl)phenyl)-5-methyl-4-oxo-7-propyl-3,4-dihydropyrrolo[1,2-f][1,2,4]triazine-6-carbaldehyde oxime]

SMILES: CCCc1c(/C=N/O)c(C)c2c(=O)[nH]c(-c3cc(S(=O)(=O)N4CCN(CCCO[N+](=O)[O-])CC4)ccc3OCC)nn12 [Compound 1ao, (E)-3-(4-(4-ethoxy-3-(6-((hydroxyimino)methyl)-5-methyl-4-oxo-7-propyl-3,4-dihydropyrrolo[1,2-f][1,2,4]triazin-2-yl)phenylsulfonyl)piperazin-1-yl)propyl nitrate]
- IC50 [1]: 12 nM
- % inhibition at 5.0E−09M [1, 3]: 70.6%

SMILES: CCCc1cc(C)c2c(=O)[nH]c(-c3cc(S(=O)(=O)N4CCN(CCCO)CC4)ccc3OCC)nn12 [Compound 1ap, 2-(2-ethoxy-5-((4-(3-hydroxypropyl)piperazin-1-yl)sulfonyl)phenyl)-5-methyl-7-propylpyrrolo [2,1-f][1,2,4]triazin-4(3H)-one]
- IC50 [1]: 2.8 nM
- % inhibition at 5.0E−09M [1, 3]: 69.2%

- % inhibition at 5.0E−09M [1, 3]: 1.3%
SMILES: CCCOc1ccc(S(=O)(=O)N2CCC(CCO[N+](=O)[O-])CC2)cc1-c1nn2c(CCC)c(/C=N\O)c(C)c2c(=O)[nH]1 [Compound 1aq, (Z)-2-(1-((3-(6-((hydroxyimino)methyl)-5-methyl-4-oxo-7-propyl-3,4-dihydropyrrolo[2,1-f][1,2,4]triazin-2-yl)-4-propoxyphenyl)sulfonyl)piperidin-4-yl)ethyl nitrate]

- EC50 ([2]; High Glucose (25 mM)): 20.4 nM
- EC50 ([2]; Intact Endothelium (E+)): 0.186 nM
- EC50 ([2]; L-NAME (100 μM)): 5.8 nM
- EC50 ([2]; Without Endothelium): 20.6 nM
SMILES: CCCc1nn(C)c2c(=O)[nH]c(-c3cc(S(=O)(=O)N4CCN(C)CC4)ccc3OCC)nc12 [sildenafil, reference compound]
- IC40 ([2]; High Glucose (25 mM)): 826.989 nM
- IC40 ([2]; Intact Endothelium (E+)): 0.194 nM
- IC40 ([2]; L-NAME (100 μM)): 95.659 nM
- Emax ([2]; High Glucose (25 mM)): 49.1%
- Emax ([2]; Intact Endothelium (E+)): 79.3%
- Emax ([2]; L-NAME (100 μM)): 51.4%
- Emax ([2]; Without Endothelium): 36.4%
- IC40 ([2]; Without Endothelium): >1000 nM
